Three compounds from PubChem BioAssay (NCI) can be followed below.

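Grown in 96-well plates, cells were treated for 48 hours with each compound at five concentrations. Insufficient inhibition: endpoint recorded as highest concentration tested. GI50 is the concentration that inhibits growth by half. TGI denotes the concentration required for complete inhibition of growth.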

Some test systems named below: HT29 colon; NCI-H23 lung; SNB-19 CNS; SW-620 colon; SF-295 CNS; A549 NSCLC; KM12 colon; SNB-75 CNS; 786-0 renal; HL-60(TB) leukemia.
Holding throughout (assay): NCI-60 cell line screen, 48 h

Regarding `CC(C)c1c(O)c(O)c2c(c1O)C(=O)C(O)=C1C(C)(C)CCC[C@@]12C`, the TGI in the experiment with HT29 colon is 10.2 µM; with NCI-H23 lung, 13.8 µM; in the experiment with SNB-19 CNS it was 22.1 µM; with SW-620 colon it was 11.8 µM; in the experiment on SF-295 CNS, 12 µM; in the experiment with A549 NSCLC, 14.3 µM. Moreover, the TGI in the experiment with KM12 colon came to 12.2 µM; in the experiment on SNB-75 CNS it was 8.12 µM; in the experiment with 786-0 renal, 13.8 µM; with HL-60(TB) leukemia, 4.78 µM.
As for `O=C(Nc1cc(Cl)c(Cl)cc1Cl)C(=O)C1C(=O)NC(=S)NC1=O`, the TGI in the experiment on HT29 colon, in the experiment with NCI-H23 lung, in the experiment with SNB-19 CNS, in the experiment with SW-620 colon, with SF-295 CNS and in the experiment on A549 NSCLC was > 100 µM in each case. Further, the TGI in the experiment on KM12 colon, in the experiment on SNB-75 CNS, in the experiment on 786-0 renal and with HL-60(TB) leukemia was > 100 µM in each case.
Consider `CC/C=C\C[C@H](O)C/C=C1/C(=O)C=C[C@@H]1C/C=C\CCCC(=O)OC`, for which the GI50 was 1.61 µM with HT29 colon; 1.75 µM with NCI-H23 lung; 2.88 µM with SNB-19 CNS; 0.784 µM with SW-620 colon; 2.26 µM with SF-295 CNS; 2.78 µM with A549 NSCLC. The GI50 in the experiment on KM12 colon was 1.38 µM; with SNB-75 CNS, 11.7 µM; with 786-0 renal, 1.86 µM; in the experiment on HL-60(TB) leukemia, 1.74 µM. Also, the TGI in the experiment with HT29 colon amounted to 3.8 µM; in the experiment on NCI-H23 lung, 4.25 µM; in the experiment with SNB-19 CNS, 14 µM; in the experiment on SW-620 colon, 11.3 µM; in the experiment with SF-295 CNS, 5.58 µM; in the experiment with A549 NSCLC it was 7.63 µM. Further, the TGI with KM12 colon came out at 5.02 µM; in the experiment on SNB-75 CNS, 26 µM; with 786-0 renal, 3.62 µM; in the experiment with HL-60(TB) leukemia, 7.07 µM.
